Experiments:
[1] = Dissolution by turbidity method (loss in turbidity); format: physicochemical; details: loss in turbidity monitored for 5 minutes
Method: (§1) Dissolution was monitored for 5 minutes by the loss in turbidity.
as §1

[2] = Average crystalline domain size and crystallinity by X-ray diffraction; format: physicochemical; details: comparative particles as received or wet-milled (Table B)
Method: As used herein the term “essentially crystalline” is defined to mean that the particles are at least 90% crystalline as measured using X-ray diffraction techniques.
0.3 g of the drug was dissolved in 6 ml of the organic solvent, which may contain 0.3 g of a stabilizer. The organic solution was injected at 2 degrees C. with vigorous stirring into 30.0 g of the aqueous phase, which may contain a second stabilizer. The solvent was stripped from the resulting slurry, and the slurry freeze dried to yield a powder. […] Average size of the crystalline domains was determined using X-ray diffraction as known by those skilled in the art of particle size measurement, using Jade XRD pattern processing software (v.6).
as §1

Structure (SMILES)	Percent of Dissolution after 5 min. ([1]; Carbamazepine sample: deionized water) [%]	Crystalline Domain [2] [Å]	Percent of Dissolution after 5 min. ([1]; Danazol samples: deionized water plus sodium dodecyl sulfate) [%]
NC(=O)N1c2ccccc2C=Cc2ccccc21 [compound 23, Carbamazepine]	100	475	–
C#C[C@]1(O)CC[C@H]2[C@@H]3CCC4=Cc5oncc5C[C@]4(C)[C@H]3CC[C@@]21C [compound 24, Danazol/USP 24]	–	404	91
COc1ccc2cc([C@H](C)C(=O)O)ccc2c1 [compound 22, Naproxen]	–	646	–

Source: patent US20040028746A1, “Crystalline drug particles prepared using a controlled precipitation (recrystallization) process” (priority 2002, published 2004)
